Laboratory results: patent US20110020801A1, “Carboxylesterase-1 Polymorphisms and Methods of Use Therefor” (priority 2007, published 2011)
Changes are numbered by the printed parent chain. Where “and” joins values, the source holds several entries; their conditions need not be identical. Identical values can stand only once.

What was measured:
[1] = target: T1, p.Asp260fs CES1 (Homo sapiens, UniProt P23141); test: PNPA hydrolysis by S9 of cells expressing p.Asp260fs CES1; format: biochemical
T1 construct: a frameshift mutation that alters residues 260-299 and causes early truncation at a premature stop codon; expressed in transfected cells
T1 sequence (P23141 with tags, fused parts or gaps): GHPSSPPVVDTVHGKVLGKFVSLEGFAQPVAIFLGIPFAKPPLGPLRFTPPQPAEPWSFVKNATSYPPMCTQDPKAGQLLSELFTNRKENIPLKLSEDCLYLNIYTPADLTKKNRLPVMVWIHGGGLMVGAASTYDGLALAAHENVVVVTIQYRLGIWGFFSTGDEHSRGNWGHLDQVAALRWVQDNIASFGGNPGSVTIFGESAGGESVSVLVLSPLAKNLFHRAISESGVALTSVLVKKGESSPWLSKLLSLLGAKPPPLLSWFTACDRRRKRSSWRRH
From the text: (§1) The desired plasmid was designed such that the recombinant CES1 would be expressed in mammalian cells with a V5-His tag to facilitate detection and purification. Additionally, another plasmid was generated by inserting a stop codon after CES1A1 gene to yield the constructs expressing CES1 without V5-His tag. […] Thus, only untagged CES1 and its associated mutants were used in the enzymatic hydrolysis study. Two constructs of CES1 mutations, p.Gly143Glu and p.Asp260fs, were generated using a site-directed mutagenesis assay. All constructs were subjected to DNA sequencing analysis to confirm that the desired plasmids were obtained. The identified CES1A1 plasmids (WT, p.Gly143Glu, and p.Asp260fs) were co-transfected with pOG44 plasmid at a ratio of 1:10 into Flp-In™-293 cells using […] (Invitrogen, Carlsbad, Calif.). Additionally, the self-ligated pcDNA5/FRT/V5-His-TOPO® vector was included as a vector control. Twenty-four hours after transfection, cells were washed with PBS and fresh complete medium (Dulbecco's modified Eagle's medium containing 10% fetal bovine serum) was added. Forty-eight hours after transfection, cells were split at a 1:10 ratio and cultured at 37° C. until cell attachment was observed. Culture medium was then removed and replenished with complete medium supplemented with the selecting antibiotic hygromycin B (100 μg/ml). The cell lines stably expressing WT, p.Gly143Glu, and p.Asp260fs CES1 were obtained only after a minimum 3-week selection process employing hygromycin B. Each generated cell line was identified by both expression detection and enzymatic function assays.
(§2) After attaining approximately 95% confluence, cells were rinsed and harvested in PBS containing 10 mM HEPES (pH 7.4). The cell suspension was then sonicated and the supernatant 9000 (S9) fraction was collected by centrifugation at 9000 g for 30 min at 4° C. The protein concentration was determined using a Pierce BCA assay kit (Rockford, Ill.).
(§3) The hydrolysis of PNPA was carried out in 96-well culture plates at 37° C. in a final volume of 200 μl. The S9 of cells expressing WT and mutant CES1 were diluted in reaction buffer (PBS containing 10 mM HEPES, pH 7.4) with a final S9 concentration of 20 μg/ml and preincubated at 37° C. for 10 min. […] The formation of p-nitrophenol (PNP) from PNPA was determined by the absorbance at 405 nm following incubation at 37° C. for 10 min.
(§4) Thus, following the enzymatic assay, the values determined for spontaneous PNP and RA hydrolysis were subtracted from the total PNP and RA production. […] All collected data were fit to the Michaelis-Menten equation, and kinetic parameters were calculated using nonlinear regression analysis with Graphpad Prism software (Graphpad Software Inc., San Diego, Calif.)

[2] = target: T2, WT CES1 (Homo sapiens, UniProt P23141); test: PNPA hydrolysis by S9 of Flp-In-293 cells expressing WT CES1; format: biochemical; conditions: S9 20 μg/ml, 37° C., 10 min, mean ± S.D. (n = 3)
T2 construct: inserting a stop codon after CES1A1 gene to yield the constructs expressing CES1 without V5-His tag; expressed in transfected cells
T2 sequence (P23141 18-567): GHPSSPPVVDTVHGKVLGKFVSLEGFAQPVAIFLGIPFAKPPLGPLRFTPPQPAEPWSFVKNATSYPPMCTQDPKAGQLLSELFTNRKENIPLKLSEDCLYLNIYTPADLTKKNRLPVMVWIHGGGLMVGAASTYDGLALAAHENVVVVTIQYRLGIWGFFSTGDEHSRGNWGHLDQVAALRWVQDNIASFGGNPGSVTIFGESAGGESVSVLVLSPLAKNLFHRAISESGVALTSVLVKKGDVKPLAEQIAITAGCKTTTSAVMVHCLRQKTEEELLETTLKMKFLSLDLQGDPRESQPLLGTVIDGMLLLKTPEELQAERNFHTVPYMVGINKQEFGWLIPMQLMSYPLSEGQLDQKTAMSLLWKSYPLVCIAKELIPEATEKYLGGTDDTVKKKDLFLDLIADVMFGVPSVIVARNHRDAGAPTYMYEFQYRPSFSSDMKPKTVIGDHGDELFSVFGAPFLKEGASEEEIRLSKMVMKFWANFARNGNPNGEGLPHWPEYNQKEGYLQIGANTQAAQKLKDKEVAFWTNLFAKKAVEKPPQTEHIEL
From the text: The desired plasmid was designed such that the recombinant CES1 would be expressed in mammalian cells with a V5-His tag to facilitate detection and purification. Additionally, another plasmid was generated by inserting a stop codon after CES1A1 gene to yield the constructs expressing CES1 without V5-His tag. […] Thus, only untagged CES1 and its associated mutants were used in the enzymatic hydrolysis study. Two constructs of CES1 mutations, p.Gly143Glu and p.Asp260fs, were generated using a site-directed mutagenesis assay. All constructs were subjected to DNA sequencing analysis to confirm that the desired plasmids were obtained. […]
(§5) After attaining approximately 95% confluence, cells were rinsed and harvested in PBS containing 10 mM HEPES (pH 7.4). […] The protein concentration was determined using a Pierce BCA assay kit (Rockford, Ill.).
The hydrolysis of PNPA was carried out in 96-well culture plates at 37° C. in a final volume of 200 μl. […] The formation of p-nitrophenol (PNP) from PNPA was determined by the absorbance at 405 nm following incubation at 37° C. for 10 min.
Thus, following the enzymatic assay, the values determined for spontaneous PNP and RA hydrolysis were subtracted from the total PNP and RA production. […]

[3] = Spontaneous hydrolysis in reaction buffer; format: physicochemical; conditions: PBS containing 10 mM HEPES, pH 7.4
Procedure: as §4

[4] = target: T3, p.Gly143Glu CES1 (Homo sapiens, UniProt P23141, G143E); test: PNPA hydrolysis by S9 of cells expressing p.Gly143Glu CES1; format: biochemical; conditions: S9 20 μg/ml, 37° C., 10 min, mean ± S.D. (n = 3)
T3 construct: inserting a stop codon after CES1A1 gene to yield the constructs expressing CES1 without V5-His tag; expressed in transfected cells
T3 sequence (P23141 18-567 G143E/Y526T): T2 sequence (P23141 18-567) with G126E, Y509T
From the text: as §1, §2, §3, §4

[5] = target: T4, p.Gly143Glu CES1 (Homo sapiens, UniProt P23141, G143E/Y526T); test: as above; format: biochemical
T4 construct: inserting a stop codon after CES1A1 gene to yield the constructs expressing CES1 without V5-His tag; expressed in transfected cells
T4 sequence (P23141 18-567 G143E/Y526T): T2 sequence (P23141 18-567) with G126E, Y509T
From the text: as §1, §2, §3, §4

[6] = target: T3, p.Gly143Glu CES1; test: MPH hydrolysis to ritalinic acid by S9 of cells expressing p.Gly143Glu CES1 (HPLC); format: biochemical; conditions: S9 500 μg/ml, even at very high S9 concentration (2 mg/ml); 37° C., 2 h
From the text: as §1, with “Forty-eight hours after transfection, cells were split at a 1:10 ratio and cultured at 37° C. until cell attachment was observed. Culture medium was then removed and replenished with complete medium supplemented with the selecting antibiotic hygromycin B (100 μg/ml). The cell lines stably expressing WT, p.Gly143Glu, and p.Asp260fs CES1 were obtained only after a minimum 3-week selection process employing hygromycin B. Each generated cell line was identified by both expression detection and enzymatic function assays.” left out
as §5
(§6) For the study of MPH hydrolysis, the reaction was conducted in 1.5 mL eppendorf tubes with a final S9 concentration of 0.5 mg/mL at a total volume of 100 μL. […] Concentrations of the primary phase I MPH metabolite produced via hydrolysis, ritalinic acid (RA), was determined utilizing an established HPLC method described below.
as §4, with “Calif.) […]” for “Calif.)”

[7] = target: T1, p.Asp260fs CES1; test: MPH hydrolysis to ritalinic acid by S9 of cells expressing p.Asp260fs CES1 (HPLC); format: biochemical; conditions: S9 500 μg/ml, even at very high S9 concentration (2 mg/ml); 37° C., 2 h
From the text: as §1, with “Forty-eight hours after transfection, cells were split at a 1:10 ratio and cultured at 37° C. until cell attachment was observed. Culture medium was then removed and replenished with complete medium supplemented with the selecting antibiotic hygromycin B (100 μg/ml). The cell lines stably expressing WT, p.Gly143Glu, and p.Asp260fs CES1 were obtained only after a minimum 3-week selection process employing hygromycin B. Each generated cell line was identified by both expression detection and enzymatic function assays.” left out
as §5, §6
as §4, with “Calif.) […]” for “Calif.)”

[8] = cited from earlier work
[9] = target: T5, hCES1 (Homo sapiens, UniProt P23141); conditions: in vitro; cited from earlier work
T5 sequence (P23141 18-567): T2 sequence (P23141 18-567)

[10] = Pharmacokinetic study of orally administered racemic MPH in normal volunteers; format: in vivo, human; conditions: single oral 0.3 mg/kg racemic MPH, plasma
Procedure: Analysis of Pharmacokinetic, Hemodynamic, and Statistical Data. Standard pharmacokinetic analyses were applied to the MPH data using WinNonLin software (Pharsight, Mountainview, Calif.) and are described in a previous publication.^10 The AUC, Cmax, and t1/2 were analyzed using the Extreme Studentized Deviate (ESD) single-outlier procedure^12 to determine whether the parameter measurements for the slow metabolizer constituted true statistical outliers. For each parameter, the ESD procedure confirmed the measurement as an outlier at the p<0.01 level. Because this procedure is known to be conservative, the data from the aberrant metabolizer were reassessed using a similar procedure with respect to the normal participants only.

[11] = target: T2, WT CES1; test: MPH hydrolysis to ritalinic acid by S9 of cells expressing WT CES1 (HPLC); format: biochemical; conditions: S9 0.5 mg/mL, 37° C., 2 hours, mean ± S.D. (n = 3)
From the text: as §1, with “Forty-eight hours after transfection, cells were split at a 1:10 ratio and cultured at 37° C. until cell attachment was observed. Culture medium was then removed and replenished with complete medium supplemented with the selecting antibiotic hygromycin B (100 μg/ml). The cell lines stably expressing WT, p.Gly143Glu, and p.Asp260fs CES1 were obtained only after a minimum 3-week selection process employing hygromycin B. Each generated cell line was identified by both expression detection and enzymatic function assays.” left out
as §5, §6
as §4, with “Calif.) […]” for “Calif.)”

[12] = S9 20 μg/ml, 37° C., 10 min, mean ± S.D. (n = 3)

CC(=O)Oc1ccc([N+](=O)[O-])cc1 [PNPA, p-nitrophenyl acet]
Km relative to WT [1]: approximately 9.5 times
Vmax as percent of that of WT CES1 [1]: 5.7%
Km [1, 12]: 950 ± 352 µM
Vmax [1, 12]: 28.0 ± 6.1 nmole/min/mg protein
Km [2]: 107 µM
Vmax [2]: 493.9 nmole/min/mg protein and 493.9 ± 14.3 nmole/min/mg protein
stability in reaction buffer [3]: spontaneously hydrolyzed
Km [4]: 93.2 ± 9.8 µM
Km relative to WT [5]: comparable to that of WT
Vmax as percent of that of WT CES1 [5]: 18.6%
Vmax [5, 12]: 92.0 ± 2.9 nmole/min/mg protein

COC(=O)[C@@H](c1ccccc1)[C@@H]1CCCCN1 [l-MPH, l-threo-(S,S)-methylphenidate]
catalytic activity towards MPH hydrolysis [6]: failed to show any hydrolytic activity
catalytic activity towards MPH hydrolysis [7]: failed to show any hydrolytic activity
fraction of the total circulating blood concentrations of MPH ([8]; racemic MPH, enantioselective analytical methods): 1-15%
blood concentration relative to that of d-MPH ([8]; studies that measured both isomers): 1-15%
AUCinf relative to that of d-MPH ([8]; various oral formulations): 1%-15%
catalytic efficiency of hCES1 relative to d-MPH [9]: up to 6 fold
Cmax of slow metabolizer relative to the mean of the other subjects [10]: approximately 100 fold
Cmax ([10]; slow metabolizer): 62 ng/mL
Km [11]: 776 ± 162 µM
Vmax [11]: 1701.0 pmole/min/mg protein and 1701.0 ± 196.5 pmole/min/mg protein
